Data taken from patent publication US20250281495A1, “METHODS FOR INHIBITING INFLAMMATION AND PROGRESSION OF ATHEROSCLEROTIC PLAQUES AND CARDIOVASCULAR EVENTS IN PATIENTS WITH CEREBRO- AND CARDIO-VASCULAR DISEASE” (ICAHN SCHOOL OF MEDICINE AT MOUNT SINAI, priority 2021, published 2025).

System: kinase phosphorylation (pCREB, pp38, pMAPKA2P, pS6, pERK1/2) in PBMCs
Test: CyTOF screening of candidate small molecules in healthy PBMCs stimulated with atherosclerotic plasma
Assay type: cell-based, human
Details: for reversal of the inflammatory signature activated by atherosclerotic plasma: CyTOF screening
Experimental: To test the efficacy of candidate small molecules in reversing immune response of PBMCs to atherosclerotic plasma, the inventors examined cell type-specific pharmacologic effects of selected candidate compounds. Using healthy PBMCs, the inventors assessed the activity of selected small molecules in the presence of atherosclerotic plasma stimulation that followed 30 minutes of pretreatment with each candidate compounds. Using CyTOF mass-cytometry, the inventors measured the specific inhibition of kinase phosphorylation (i.e., pCREB, pp38, pMAPKA2P, pS6, pERK1/2) in each cell type at the single cell level for each drug (FIGS. 8 and 9).

[1] = CD16+ monocytes and CD1c+ DC, atherosclerotic plasma
[2] = CD14+ and CD16+ monocytes and CD1c+ DC (these cells)
[3] = CD14+ and CD16+ monocytes and CD1c+ DC, atherosclerotic plasma

| Structure (SMILES) | p38 phosphorylation (CD1c+ DC, atherosclerotic plasma) | ERK1/2 phosphorylation [1] | reversal of the inflammatory signature activated by atherosclerotic plasma | phosphorylation of major kinases (e.g., CREB and S6) implicated in the inflammatory transcriptional reprogramming (atherosclerotic plasma) | ERK1/2 phosphorylation in response to atherosclerosis plasma [2] | p38 phosphorylation in response to atherosclerosis plasma [2] | CREB phosphorylation [3] | S6 phosphorylation [3] | MAPKA2P phosphorylation [1] | inhibition of most specific kinase phosphorylation activated by atherosclerosis plasma (cell-specificity for monocytes and CD1c+ DC, 30 minutes of pretreatment) |
| --- | --- | --- | --- | --- | --- | --- | --- | --- | --- | --- |
| CC[C@H](C)C(=O)O[C@H]1CCC=C2C=C[C@H](C)[C@H](CC[C@@H]3C[C@@H](O)CC(=O)O3)[C@H]21 [Mevastatin] | inhibited | inhibited | did not fully reverse | did not affect |  |  |  |  |  |  |
| CS(=O)(=O)O.Cn1cc(C2=C(c3cn(CCCSC(=N)N)c4ccccc34)C(=O)NC2=O)c2ccccc21 [Ro 31-8220 mesylate] |  |  | reversed |  | not inhibited | not inhibited | significant inhibition | significant inhibition | significant inhibition | significant inhibition |
